# From patent US20230085307A1, “PYRIDAZINONE COMPOUND AND HERBICIDE” (NISSAN CHEMICAL CORPORATION, priority 2019, published 2023)
# Experiments:
# barnyard grass [1] = experiment: Test Example 3: herbicidal effect by foliage application, Wagner pot (Table 18, symbol H); format: in vivo, barnyard grass (Echinochloa crus-galli); conditions: 320 g/ha
# Summary of the method: (§1)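 Plants were sown in alluvial soil held under 0.1–0.5 cm standing water and grown 14 days in a greenhouse at 25–30 °C. An emulsifiable formulation, water-diluted to the set dose, was then sprayed onto the foliage, and effects were scored three weeks later using previously defined criteria.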
# velvetleaf [2] = experiment: Test Example 5: herbicidal effect by foliage application, plastic box (Table 20, symbol M); format: in vivo, velvetleaf (Abutilon theophrasti); conditions: amount of applied herbicide 320 g/ha; foliage application after 14-day growth; evaluated three weeks after application
# Summary of the method: (§2)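 Plants sown in sterilized diluvial soil and grown 14 days in a greenhouse at 25° C to 30° C, then sprayed on the foliage with the compound's emulsion diluted in water to a predetermined herbicide amount. Injury to weeds and crops scored three weeks after application on a visual rating scale.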
# Japanese bulrush = experiment: Test Example 2: herbicidal activity, application during weed generation under submerged conditions (Table 17, symbol B); format: in vivo, Japanese bulrush (Schoenoplectus juncoides); conditions: AAH 320 g/ha; application during weed generation, submerged conditions
# Summary of the method: (§3)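 Herbicide emulsion, diluted with water to the chosen amount, is applied onto 4 cm floodwater over alluvial soil where the weeds were co-sown and raised at 25–30° C. Application timing: 1–2 leaves. Assessment: three weeks afterwards.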
# redroot pigweed [3] = experiment: Test Example 5: herbicidal effect by foliage application, plastic box (Table 20, symbol N); format: in vivo, redroot pigweed (Amaranthus retroflexus); conditions: amount of applied herbicide 320 g/ha; foliage application after 14-day growth; evaluated three weeks after application
# Summary of the method: as §2
# barnyard grass [4] = experiment: Test Example 4: herbicidal effect by soil treatment (Table 19, symbol H); format: in vivo, barnyard grass (Echinochloa crus-galli); conditions: amount of applied herbicide 320 g/ha
# Summary of the method: (§4)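 Three weeks of greenhouse growth at 25° C. to 30° C. followed a uniform surface spray of water-diluted emulsion at a predetermined herbicide amount. Seeds had been sown beforehand under about 1.5 cm of sterilized diluvial soil. Grading followed criteria set out in an earlier test.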
# blackgrass [5] = experiment: Test Example 4: herbicidal effect by soil treatment (Table 19, symbol J); format: in vivo, blackgrass (Alopecurus myosuroides); conditions: amount of applied herbicide 320 g/ha
# Summary of the method: as §4
# redroot pigweed [6] = experiment: Test Example 4: herbicidal effect by soil treatment (Table 19, symbol N); format: in vivo, redroot pigweed (Amaranthus retroflexus); conditions: amount of applied herbicide 320 g/ha
# Summary of the method: as §4
# chickweed [7] = experiment: Test Example 4: herbicidal effect by soil treatment (Table 19, symbol P); format: in vivo, common chickweed (Stellaria media); conditions: amount of applied herbicide 320 g/ha
# Summary of the method: as §4
# persian speedwell [8] = experiment: Test Example 4: herbicidal effect by soil treatment (Table 19, symbol R); format: in vivo, Persian speedwell (Veronica persica); conditions: amount of applied herbicide 320 g/ha
# Summary of the method: as §4
# blackgrass [9] = experiment: Test Example 5: herbicidal effect by foliage application, plastic box (Table 20, symbol J); format: in vivo, blackgrass (Alopecurus myosuroides); conditions: amount of applied herbicide 320 g/ha; foliage application after 14-day growth; evaluated three weeks after application
# Summary of the method: as §2
# oval-leafed pondweed = experiment: Test Example 2: herbicidal activity, application during weed generation under submerged conditions (Table 17, symbol C); format: in vivo, oval-leafed pondweed (Monochoria vaginalis); conditions: AAH 320 g/ha; application during weed generation, submerged conditions
# Summary of the method: as §3
# southern crabgrass [10] = experiment: Test Example 5: herbicidal effect by foliage application, plastic box (Table 20, symbol F); format: in vivo, southern crabgrass (Digitaria ciliaris); conditions: amount of applied herbicide 320 g/ha; foliage application after 14-day growth; evaluated three weeks after application
# Summary of the method: as §2
# Italian ryegrass [11] = experiment: Test Example 5: herbicidal effect by foliage application, plastic box (Table 20, symbol K); format: in vivo, Italian ryegrass (Lolium multiflorum); conditions: amount of applied herbicide 320 g/ha; foliage application after 14-day growth; evaluated three weeks after application
# Summary of the method: as §2
# velvetleaf [12] = experiment: Test Example 4: herbicidal effect by soil treatment (Table 19, symbol M); format: in vivo, velvetleaf (Abutilon theophrasti); conditions: amount of applied herbicide 320 g/ha
# Summary of the method: as §4
# Italian ryegrass [13] = experiment: Test Example 4: herbicidal effect by soil treatment (Table 19, symbol K); format: in vivo, Italian ryegrass (Lolium multiflorum); conditions: amount of applied herbicide 320 g/ha
# Summary of the method: as §4
# wild oat [14] = experiment: Test Example 5: herbicidal effect by foliage application, plastic box (Table 20, symbol I); format: in vivo, wild oat (Avena fatua); conditions: amount of applied herbicide 320 g/ha; foliage application after 14-day growth; evaluated three weeks after application
# Summary of the method: as §2
# persian speedwell [15] = experiment: Test Example 5: herbicidal effect by foliage application, plastic box (Table 20, symbol R); format: in vivo, Persian speedwell (Veronica persica); conditions: amount of applied herbicide 320 g/ha; foliage application after 14-day growth; evaluated three weeks after application
# Summary of the method: as §2
# chickweed [16] = experiment: Test Example 5: herbicidal effect by foliage application, plastic box (Table 20, symbol P); format: in vivo, common chickweed (Stellaria media); conditions: amount of applied herbicide 320 g/ha; foliage application after 14-day growth; evaluated three weeks after application
# Summary of the method: as §2
# late watergrass = experiment: Test Example 2: herbicidal activity, application during weed generation under submerged conditions (Table 17, symbol A); format: in vivo, late watergrass (Echinochloa oryzicola); conditions: AAH 320 g/ha; application during weed generation, submerged conditions
# Summary of the method: as §3
# barnyard grass [17] = experiment: Test Example 5: herbicidal effect by foliage application, plastic box (Table 20, symbol H); format: in vivo, barnyard grass (Echinochloa crus-galli); conditions: amount of applied herbicide 320 g/ha; foliage application after 14-day growth; evaluated three weeks after application
# Summary of the method: as §2
# wild oat [18] = experiment: Test Example 4: herbicidal effect by soil treatment (Table 19, symbol I); format: in vivo, wild oat (Avena fatua); conditions: amount of applied herbicide 320 g/ha
# Summary of the method: as §4
# Chinese sprangletop = experiment: Test Example 3: herbicidal effect by foliage application, Wagner pot (Table 18, symbol D); format: in vivo, chinese sprangletop (Leptochloa chinensis); conditions: 320 g/ha
# Summary of the method: as §1
# windgrass [19] = experiment: Test Example 4: herbicidal effect by soil treatment (Table 19, symbol L); format: in vivo, windgrass (Apera spica-venti); conditions: amount of applied herbicide 320 g/ha
# Summary of the method: as §4
# lambsquarters [20] = experiment: Test Example 5: herbicidal effect by foliage application, plastic box (Table 20, symbol O); format: in vivo, lambsquarters (Chenopodium album); conditions: amount of applied herbicide 320 g/ha; foliage application after 14-day growth; evaluated three weeks after application
# Summary of the method: as §2
# rice flat sedge = experiment: Test Example 3: herbicidal effect by foliage application, Wagner pot (Table 18, symbol E); format: in vivo, rice flat sedge (Cyperus iria); conditions: 320 g/ha
# Summary of the method: as §1
# lambsquarters [21] = experiment: Test Example 4: herbicidal effect by soil treatment (Table 19, symbol O); format: in vivo, lambsquarters (Chenopodium album); conditions: amount of applied herbicide 320 g/ha
# Summary of the method: as §4
# green foxtail [22] = experiment: Test Example 5: herbicidal effect by foliage application, plastic box (Table 20, symbol G); format: in vivo, green foxtail (Setaria viridis); conditions: amount of applied herbicide 320 g/ha; foliage application after 14-day growth; evaluated three weeks after application
# Summary of the method: as §2
# southern crabgrass [23] = experiment: Test Example 4: herbicidal effect by soil treatment (Table 19, symbol F); format: in vivo, southern crabgrass (Digitaria ciliaris); conditions: amount of applied herbicide 320 g/ha
# Summary of the method: as §4
# windgrass [24] = experiment: Test Example 5: herbicidal effect by foliage application, plastic box (Table 20, symbol L); format: in vivo, windgrass (Apera spica-venti); conditions: amount of applied herbicide 320 g/ha; foliage application after 14-day growth; evaluated three weeks after application
# Summary of the method: as §2
# green foxtail [25] = experiment: Test Example 4: herbicidal effect by soil treatment (Table 19, symbol G); format: in vivo, green foxtail (Setaria viridis); conditions: amount of applied herbicide 320 g/ha
# Summary of the method: as §4
structure (smiles),measurement,setting,value
Cc1nn(C)c(=O)c(-c2c(-c3ccc(F)cc3)sc3cc(Cl)c(Cl)cc23)c1O [5-039],herbicidal effect on barnyard grass (H),barnyard grass [1],4 (Herbicidal rate of 70% or more and less than 90%)
same,"Herbicidal effect by foliage application, M: velvetleaf",velvetleaf [2],3 (Herbicidal rate of 40% or more and less than 70%)
same,"herbicidal effect rating, B: Japanese bulrush",Japanese bulrush,0 (Herbicidal rate of 5% or less (almost no effect))
same,"Herbicidal effect by foliage application, N: redroot pigweed",redroot pigweed [3],5 (Herbicidal rate of 90% or more (almost completely withered))
same,"H: barnyard grass, herbicidal effect grade",barnyard grass [4],0 (Herbicidal rate of 5% or less (almost no effect))
same,"J: blackgrass, herbicidal effect grade",blackgrass [5],0 (Herbicidal rate of 5% or less (almost no effect))
same,"N: redroot pigweed, herbicidal effect grade",redroot pigweed [6],3 (Herbicidal rate of 40% or more and less than 70%)
same,"P: chickweed, herbicidal effect grade",chickweed [7],0 (Herbicidal rate of 5% or less (almost no effect))
same,"R: persian speedwell, herbicidal effect grade",persian speedwell [8],0 (Herbicidal rate of 5% or less (almost no effect))
same,"Herbicidal effect by foliage application, J: blackgrass",blackgrass [9],4 (Herbicidal rate of 70% or more and less than 90%)
same,"herbicidal effect rating, C: oval-leafed pondweed",oval-leafed pondweed,0 (Herbicidal rate of 5% or less (almost no effect))
same,"Herbicidal effect by foliage application, F: southern crabgrass",southern crabgrass [10],4 (Herbicidal rate of 70% or more and less than 90%)
same,"Herbicidal effect by foliage application, K: Italian ryegrass",Italian ryegrass [11],4 (Herbicidal rate of 70% or more and less than 90%)
same,"M: velvetleaf, herbicidal effect grade",velvetleaf [12],0 (Herbicidal rate of 5% or less (almost no effect))
same,"K: Italian ryegrass, herbicidal effect grade",Italian ryegrass [13],0 (Herbicidal rate of 5% or less (almost no effect))
same,"Herbicidal effect by foliage application, I: wild oat",wild oat [14],5 (Herbicidal rate of 90% or more (almost completely withered))
same,"Herbicidal effect by foliage application, R: persian speedwell",persian speedwell [15],4 (Herbicidal rate of 70% or more and less than 90%)
same,"Herbicidal effect by foliage application, P: chickweed",chickweed [16],5 (Herbicidal rate of 90% or more (almost completely withered))
same,"herbicidal effect rating, A: late watergrass",late watergrass,3 (Herbicidal rate of 40% or more and less than 70%)
same,"Herbicidal effect by foliage application, H: barnyard grass",barnyard grass [17],4 (Herbicidal rate of 70% or more and less than 90%)
same,"I: wild oat, herbicidal effect grade",wild oat [18],0 (Herbicidal rate of 5% or less (almost no effect))
same,herbicidal effect on Chinese sprangletop (D),Chinese sprangletop,3 (Herbicidal rate of 40% or more and less than 70%)
same,"L: windgrass, herbicidal effect grade",windgrass [19],0 (Herbicidal rate of 5% or less (almost no effect))
same,"Herbicidal effect by foliage application, O: lambsquarters",lambsquarters [20],5 (Herbicidal rate of 90% or more (almost completely withered))
same,herbicidal effect on rice flat sedge (E),rice flat sedge,5 (Herbicidal rate of 90% or more (almost completely withered))
same,"O: lambsquarters, herbicidal effect grade",lambsquarters [21],1 (Herbicidal rate of 5% or more and less than 20%)
same,"Herbicidal effect by foliage application, G: green foxtail",green foxtail [22],5 (Herbicidal rate of 90% or more (almost completely withered))
same,"F: southern crabgrass, herbicidal effect grade",southern crabgrass [23],0 (Herbicidal rate of 5% or less (almost no effect))
same,"Herbicidal effect by foliage application, L: windgrass",windgrass [24],5 (Herbicidal rate of 90% or more (almost completely withered))
same,"G: green foxtail, herbicidal effect grade",green foxtail [25],0 (Herbicidal rate of 5% or less (almost no effect))
